Consider 20 substances from US20220275534A1, “Peptide Library Production Method” (The University of Tokyo, priority 2018, published 2022).

One assay relates to KgpF. Briefly: Prenylation of artificial cyclic peptides with 160 μM KgpF at 0° C., 20 hours (Conditions 13/14 and 19/20; Examples 10, 14, 19; Tables 6 and 18). In kind it is biochemical, Microcystis aeruginosa. The arrangement: key: 5: strong intensity; 4: medium intensity; 3: weak intensity; 2: very weak intensity; 1: no peak; N/A: not observed. Particulars: for MALDI-TOF-MS peak intensity, Number of additions 1 / MALDI-TOF-MS peak intensity, Number of additions 2 / MALDI-TOF-MS peak intensity, Number of additions 0 / MALDI-TOF-MS peak intensity, Number of additions 3: Table 6, 160 μM KgpF, 2 mM DMAPP, 0° C., 20 hours; for MALDI-TOF-MS peak intensity, Number of additions 1: 1 prenyl added; for MALDI-TOF-MS peak intensity, Number of additions 2: 2 prenyl added; for MALDI-TOF-MS peak intensity, Number of additions 0: unmodified peptide peak; for MALDI-TOF-MS peak intensity, Number of additions 3: 3 prenyl added. As to the method: The artificial cyclic peptides Clone-M1 to M9 shown below were obtained by translation and synthesis in the artificial translation system (Conditions 13) developed by the present inventors. The peptides thus obtained were then reacted with 160 μM KgpF in the system shown in (Conditions 14) at 0° C. for 20 hours.
Sequence of KgpF (as listed by the source): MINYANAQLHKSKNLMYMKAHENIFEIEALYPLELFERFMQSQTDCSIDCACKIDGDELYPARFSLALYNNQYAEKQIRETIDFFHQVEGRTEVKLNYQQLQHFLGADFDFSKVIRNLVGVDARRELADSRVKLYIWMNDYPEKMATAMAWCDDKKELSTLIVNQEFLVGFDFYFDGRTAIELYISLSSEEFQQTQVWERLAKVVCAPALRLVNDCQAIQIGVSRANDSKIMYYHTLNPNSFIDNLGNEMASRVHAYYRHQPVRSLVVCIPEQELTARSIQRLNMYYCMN
(Conditions 13) • FIT system: v8s/v11.0 • 19aa-Met: 0.5 mM • ClAc-D-Tyr-tRNA^fMetCUA: 90 μM • Reaction: 37° C., 60 min. • Scale: 2.5 μL scale
After the above reaction was performed, the reaction product was incubated at 25° C. for 12 minutes.
Then, a cyclization reaction was performed under the following conditions. • Translated mixture amount: 2.5 μL (mixture obtained by the above reaction) • EDTA: 18 mM • Reaction: 42° C., 60 min. • Scale: 2.75 μL scale
(Conditions 14) • Translated mixture amount: 2.75 μL (mixture obtained under (Conditions 13)) • KOH: 6.0 mM • Mg(OAc)2: 9.0 mM • Tris-HCl (pH 8.3) 15 mM • KgpF: 160 μM • DMAPP: 2 mM • Reaction: 0° C., 20 hours
The artificial cyclic peptides shown below were obtained by translation and synthesis in the artificial translation system (Conditions 19) developed by the present inventors. The peptides thus obtained were then reacted with 160 μM KgpF in the system shown in (Conditions 20) at 0° C. for 20 hours.
(Conditions 19) • FIT system: v8s/11.0 • 19aa-Met: 0.5 mM • ClAc-D-Tyr-tRNA^fMetCUA: 90 μM • Reaction: 37° C., 60 min. • Scale: 2.5 μL scale
(Conditions 20) • Translated mixture amount: 2.75 μL (mixture obtained under (Conditions 19)) • KOH: 6.0 mM • Mg(OAc)2: 9.0 mM • Tris-HCl (pH 8.3): 15 mM • KgpF: 160 μM • DMAPP: 2 mM • Reaction: 0° C., 20 hours
Then, the compound library was provided for a step of screening cyclic peptides having interaction with an enzyme MetAP1 (Human) as in the scheme shown in FIG. 8. It has been confirmed that with regards to some of the peptides shown in FIG. 10, peptides having these sequences are modified by prenylation as shown in Table 18 by bringing them into contact with KgpF under conditions shown in (Conditions 13) and (Conditions 14).

Another assay concerns OltF v 2.1. Briefly: Modification test of thioether-closed artificial cyclic peptides with 9.13 μM OltF v 2.1 (Example 16; Tables 11 and 12). In kind it is biochemical, Planktothrix. Details: key: 5: strong intensity; 4: medium intensity; 3: weak intensity; 2: very weak intensity; 1: no peak; N/A: not observed. Particulars: OltF v 2.1 9.13 μM, DMAPP 2 mM, 37° C., 18 hours. As to the method:
The artificial cyclic peptides shown in Table 11 and Table 12 were obtained by translation and synthesis in the artificial translation system (Conditions 23) developed by the present inventors. The peptides thus obtained were then reacted with 9.13 μM OltF in the system shown in (Conditions 24) at 37° C. for 18 hours. It is to be noted that OltF v 2.1 is an enzyme prepared from OltF used in (Conditions 22) while changing a purification manner.
(Conditions 23) • FIT system: v8s/v11.1 • 19aa-Met: 0.5 mM • ClAc-D or L-Tyr-tRNA^fMetCUA: 90 μM • Reaction: 37° C., 60 min. • Scale: 2.5 μL scale
(Conditions 24) • Translated mixture amount: 2.5 μL (mixture obtained under (Conditions 23)) • OltF v 2.1: 9.13 μM • DMAPP: 2 mM • Reaction: 37° C., 18 hours

Setting [1] is: Table 18, Conditions 13 and 14 (160 μM KgpF, 0° C., 20 hours), NSGGVS added to C terminal.

Positions of bridges follow the written chain, without caps; N, C: chain ends. Non-standard residues stand in square brackets, D forms with d. No end group written: not given here. *: point of attachment. prenyl = prenyl group added to Trp by KgpF, CC(C)=CC*

Sequence of OltF v 2.1 (as listed by the source): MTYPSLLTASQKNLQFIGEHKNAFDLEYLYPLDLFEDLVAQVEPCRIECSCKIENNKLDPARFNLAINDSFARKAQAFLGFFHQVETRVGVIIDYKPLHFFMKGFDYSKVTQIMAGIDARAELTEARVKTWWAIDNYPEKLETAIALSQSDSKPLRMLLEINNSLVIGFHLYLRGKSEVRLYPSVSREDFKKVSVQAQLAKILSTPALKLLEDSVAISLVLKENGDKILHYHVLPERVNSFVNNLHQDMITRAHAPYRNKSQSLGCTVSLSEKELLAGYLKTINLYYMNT

In the case of “Clone-M6: artificial cyclic peptide containing a plurality of Trps (Ac-[dY]ILSQENHVWSLWC; thioether (positions not given here); not fully specified (bridges))”, in the assay on KgpF, the “MALDI-TOF-MS peak intensity, Number of additions 1” value turned out to be 5; the “MALDI-TOF-MS peak intensity, Number of additions 2” value turned out to be 5; the “MALDI-TOF-MS peak intensity, Number of additions 0” value was 1.
Turning to “YG293 ({CH2CO}-[dY]TFRDVWIFYGSLLSRC; thioether N-17 (inferred))”, in the assay with OltF v 2.1 (Table 11), the “Peak intensity, The number of prenyl groups added 0” value is listed as 3 and the “Peak intensity, The number of prenyl groups added 1” value worked out at 4.
In the case of “DNT062 (Ac-[dY]NNRERGSDGGWGGPC; thioether (positions not given here); not fully specified (bridges))”, in the assay on OltF v 2.1 (Table 12), the “Peak intensity, The number of prenyl groups added 0” value was determined as 3 and the “Peak intensity, The number of prenyl groups added 1” value is listed as 5.
The matching figures for “DNT061 (Ac-[dY]NNRERGSDFFWFFPC; thioether (positions not given here); not fully specified (bridges))”: 2 and 5.
Take “Clone-M4: artificial cyclic peptide containing a plurality of Trps (Ac-[dY]RVSNTWWQRHRWC; thioether (positions not given here); not fully specified (bridges))”: in the assay with KgpF, the “MALDI-TOF-MS peak intensity, Number of additions 1” value is reported as 4; the “MALDI-TOF-MS peak intensity, Number of additions 2” value is 1; the “MALDI-TOF-MS peak intensity, Number of additions 3” value was 1; the “MALDI-TOF-MS peak intensity, Number of additions 0” value is 1.
On to “Met12: prenylated cyclic peptide identified by screening with MetAP1 as a target ({CH2CO}-[dY]YIIW(prenyl)HRHRIMTVCNSGGVS; thioether N-14 (inferred); not fully specified (C-terminus); also: C-terminus linked to its mRNA (mRNA display))”, for which, in the assay on KgpF (setting [1]), the “Peak intensity, The number of prenyl groups added 0” value stood at 3 and the “Peak intensity, The number of prenyl groups added 1” value is listed as 4.
As to “DNT070 ({CH2CO}-[dY]ISWNEFNSYFWLPITC; thioether N-17 (inferred); not fully specified)”, in the assay with OltF v 2.1 (Table 12), the “Peak intensity, The number of prenyl groups added 0” value is 1; the “Peak intensity, The number of prenyl groups added 1” value worked out at 5; the “Peak intensity, The number of prenyl groups added 2” value came out at 1.
Consider “Clone-M9: artificial cyclic peptide containing a plurality of Trps (Ac-[dY]SFHWGLAVWDHNC; thioether (positions not given here); not fully specified (bridges))”, for which, in the assay with KgpF, the “MALDI-TOF-MS peak intensity, Number of additions 1” value stood at 1; the “MALDI-TOF-MS peak intensity, Number of additions 2” value worked out at 5; the “MALDI-TOF-MS peak intensity, Number of additions 0” value is recorded as 1.
For the substance “Clone-M5: artificial cyclic peptide containing a plurality of Trps (Ac-[dY]LWSKNSQPWPESC; thioether (positions not given here); not fully specified (bridges))”, in the assay on KgpF, the “MALDI-TOF-MS peak intensity, Number of additions 1” value amounted to 5; the “MALDI-TOF-MS peak intensity, Number of additions 2” value is reported as 1; the “MALDI-TOF-MS peak intensity, Number of additions 0” value is given as 3.
On to “Met13: cyclic peptide SEQ ID NO: 364 identified by screening with MetAP1 as a target ({CH2CO}-[dY]VTWKGPYRWRVCNSG; thioether N-13 (inferred); not fully specified)”, for which, in the assay with KgpF (setting [1]), the “Peak intensity, The number of prenyl groups added 0” value is on record as 1; the “Peak intensity, The number of prenyl groups added 1” value came to 5; the “Peak intensity, The number of prenyl groups added 2” value is reported as 1.
With “Clone-M7: artificial cyclic peptide containing a plurality of Trps (Ac-[dY]LWVLRSDNTPWVC; thioether (positions not given here); not fully specified (bridges))”, in the assay with KgpF, the “MALDI-TOF-MS peak intensity, Number of additions 1” value was found to be 4; the “MALDI-TOF-MS peak intensity, Number of additions 2” value was 5; the “MALDI-TOF-MS peak intensity, Number of additions 0” value came out at 1.
As for “YG288 ({CH2CO}-[dY]SNFRIWRYSNSSC; thioether N-14 (inferred))”, in the assay on OltF v 2.1 (Table 11), the “Peak intensity, The number of prenyl groups added 0” value turned out to be 1 and the “Peak intensity, The number of prenyl groups added 1” value came out at 5.
For “DNT065 (Ac-[dY]NNRERGSDNNWNNPC; thioether (positions not given here); not fully specified (bridges))”, in the assay on OltF v 2.1 (Table 12), the “Peak intensity, The number of prenyl groups added 0” value stood at 3 and the “Peak intensity, The number of prenyl groups added 1” value is listed as 5.
On to “Met9: prenylated cyclic peptide identified by screening with MetAP1 as a target (Ac-[dY]KRKNCLVHVW(prenyl)HQCNSGGVS; thioether (positions not given here); not fully specified (C-terminus))”, for which, in the assay on KgpF (setting [1]), the “Peak intensity, The number of prenyl groups added 0” value amounted to 1 and the “Peak intensity, The number of prenyl groups added 1” value was 5.
As for “Clone-M3: artificial cyclic peptide containing a plurality of Trps (Ac-[dY]SWSPAWVRQADIC; thioether (positions not given here); not fully specified (bridges))”, in the assay with KgpF, the “MALDI-TOF-MS peak intensity, Number of additions 1” value is recorded as 1; the “MALDI-TOF-MS peak intensity, Number of additions 2” value is reported as 4; the “MALDI-TOF-MS peak intensity, Number of additions 0” value was 1.
For “YG292 ({CH2CO}-[dY]IRRPWVPIIYLGC; thioether N-14 (inferred))”, in the assay on OltF v 2.1 (Table 11), the “Peak intensity, The number of prenyl groups added 0” value is recorded as 2 and the “Peak intensity, The number of prenyl groups added 1” value amounted to 5.
Consider “Met11: cyclic peptide SEQ ID NO: 363 identified by screening with MetAP1 as a target ({CH2CO}-[dY]HTDPFKAWHRRSCNSG; thioether N-14 (inferred); not fully specified)”, for which, in the assay with KgpF (setting [1]), the “Peak intensity, The number of prenyl groups added 0” value is 1 and the “Peak intensity, The number of prenyl groups added 1” value is 5.
“Clone-M8: artificial cyclic peptide containing a plurality of Trps (Ac-[dY]THEWPWRTGWTRC; thioether (positions not given here); not fully specified (bridges))”: in the assay on KgpF, the “MALDI-TOF-MS peak intensity, Number of additions 1” value came to 1; the “MALDI-TOF-MS peak intensity, Number of additions 2” value stood at 5; the “MALDI-TOF-MS peak intensity, Number of additions 3” value came out at 1; the “MALDI-TOF-MS peak intensity, Number of additions 0” value is 1.
Consider “Clone-M2: artificial cyclic peptide containing a plurality of Trps (Ac-[dY]SAWHGKDNYDWFC; thioether (positions not given here); not fully specified (bridges))”, for which, in the assay on KgpF, the “MALDI-TOF-MS peak intensity, Number of additions 1” value is reported as 5; the “MALDI-TOF-MS peak intensity, Number of additions 2” value was 1; the “MALDI-TOF-MS peak intensity, Number of additions 0” value turned out to be 1.
As for “Clone-M1: artificial cyclic peptide containing a plurality of Trps ([dY]LRLNHTWSTWTSC; thioether (positions not given here); not fully specified (N-terminus, bridges); also: cyclic)”, in the assay with KgpF, the “MALDI-TOF-MS peak intensity, Number of additions 1” value is listed as 1; the “MALDI-TOF-MS peak intensity, Number of additions 2” value came to 5; the “MALDI-TOF-MS peak intensity, Number of additions 0” value is 1.
